Data reported in patent publication US12012411B2, “Viral replication inhibitors” (Katholieke Universiteit Leuven, priority 2011, dated 2024).
Read-outs that look alike come from different tables or passages of the source.

Legend:
[1] = test system: uninfected quiescent Vero-B cells; assay: Cytotoxic assay in uninfected quiescent Vero-B cells (MTS/PMS); conditions: 4 days (Table 3)
DENV-2 NGC = assay: Antiviral activity against DENV-2 NGC in Vero-B cells (viral RNA load by RT-qPCR); type: cell-based, Dengue virus; conditions: DENV-2 in Vero-B cells, inhibition of viral RNA replication by 50% (Table 3)
[2] = test system: DENV-3 strain H87 prototype; assay: Antiviral activity against DENV-3 in Vero-B cells (viral RNA load by RT-qPCR); type: cell-based, Dengue virus
[3] = test system: DENV-4 strain Dak HD 34 460; assay: Antiviral activity against DENV-4 in Vero-B cells (viral RNA load by RT-qPCR); type: cell-based, Dengue virus
[4] = test system: DENV-1 Djibouti strain D1/H/IMTSSA/98/606; assay: Antiviral activity against DENV-1 in Vero-B cells (viral RNA load by RT-qPCR); type: cell-based, Dengue virus
in vitro = conditions: African green monkey, uninfected quiescent Vero-B cells

Compound | CC50 [1] [µM] | EC50 (DENV-2 NGC; Dengue virus, DENV2, Vero B) [µM] | EC50 ([2]; Dengue virus, DENV3, Vero B) [µM] | EC50 ([3]; Dengue virus, DENV4, Vero B) [µM] | EC50 ([4]; Dengue virus, DENV1, Vero B) [µM] | other results
COc1cc(NC(C(=O)c2c[nH]c3cccc(CO)c23)c2ccccc2)cc(OC)c1 (stereo not shown) [CPD-352] | 71 | 0.29 | 3.03 | 8.6 | – | –
COc1cccc(NC(C(=O)c2c[nH]c3ccccc23)c2ccc(C)cc2)c1 (stereo not shown) [CPD-139] | 20 | 0.02 | 0.46 | 3.81 | 0.65 | –
COc1cncc(NC(C(=O)c2c[nH]c3ccccc23)c2ccccc2)c1 (single isomer, unassigned) [CPD-300] | 50 | – | – | – | – | EC50 (DENV-2 NGC): 1.29 µM; EC50 [2]: 21.1 µM; EC50 [3]: 4.13 µM; EC50 [4]: 5.29 µM
COc1cccc(NC(C(=O)c2c[nH]c3ccccc23)c2ccc3nccnc3c2)c1 (stereo not shown) [CPD-037] | 19 | 1.2 | – | – | – | –
COc1cncc(NC(C(=O)c2c[nH]c3ccccc23)c2ccccc2)n1 (stereo not shown) [CPD-252] | 68 | 0.48 | 12.6 | 2.29 | – | –
N#Cc1cccc(NC(C(=O)c2c[nH]c3ccccc23)c2ccccc2)c1 (stereo not shown) [CPD-035] | 14 | 2.11 | – | – | – | –
COc1cccc(NC(C(=O)c2c[nH]c3ccccc23)c2ccsc2)c1 (stereo not shown) [CPD-027] | 15 | 0.13 | 9.9 | 3.7 | 2.1 | –
COc1cccc(NC(C(=O)c2c[nH]c3ccccc23)c2cc3ccccn3n2)c1 (stereo not shown) [CPD-083] | 26 | 0.03 | 0.71 | 2.52 | 0.54 | –
O=C(c1c[nH]c2ccccc12)C(Nc1cccnc1)c1ccccc1 (stereo not shown) [CPD-016] | 54 | 5.01 | – | – | – | –
COc1ccnc(NC(C(=O)c2c[nH]c3ccccc23)c2ccccc2)c1 (stereo not shown) [CPD-066] | 95 | 6.32 | – | – | – | –
O=C(c1c[nH]c2ccccc12)C(Nc1ccc2[nH]c(=O)oc2c1)c1ccccc1 (stereo not shown) [CPD-057] | 15 | 6.05 | – | – | – | –
COc1cccc(NC(C(=O)c2c[nH]c3ccccc23)c2ccccc2)n1 (stereo not shown) [CPD-277] | 16 | 0.29 | – | – | – | –
COc1cccc(NC(C(=O)c2c[nH]c3ccccc23)c2ccccc2)c1OC (stereo not shown) [CPD-040] | > 129 | 4.24 | – | – | – | –
COc1cc(NC(C(=O)c2c[nH]c3ccc(CCCO)cc23)c2ccccc2)cc(OC)c1 (stereo not shown) [CPD-353] | 56 | 0.1 | 0.17 | 7.18 | – | –
COc1cccc(NC(C(=O)c2c[nH]c3c(F)cccc23)c2ccccc2)c1 (stereo not shown) [CPD-205] | 14 | 0.06 | – | – | – | –
COc1cccc(NC(C(=O)c2c[nH]c3ccccc23)c2ccc(S(C)(=O)=O)cc2)c1 (stereo not shown) [CPD-021] | > 115 | 1.62 | – | – | – | –
COc1cncc(NC(C(=O)c2c[nH]c3ccc(F)cc23)c2ccc(OC)nc2)c1 (single isomer, unassigned) [CPD-323] | 58 | – | – | – | – | EC50 (DENV-2 NGC): 0.35 µM; EC50 [2]: 4.99 µM; EC50 [4]: 3.62 µM
O=C(c1c[nH]c2ccccc12)C(NC1CCCC1)c1ccccc1 (stereo not shown) [CPD-183] | 86 | 15.2 | – | – | – | –
COc1ccc(OC)c(NC(C(=O)c2c[nH]c3ccccc23)c2ccccc2)c1 (stereo not shown) [CPD-039] | 15 | 2.48 | – | – | – | –
O=C(c1c[nH]c2ccccc12)C(Nc1cccc(OC(F)(F)F)c1)c1ccccc1 (stereo not shown) [CPD-005] | 5 | 0.93 | – | – | – | –
COc1cccc(NC(C(=O)c2c[nH]c3cc(Cl)ccc23)c2ccccc2)c1 (stereo not shown) [CPD-118] | 13 | 0.01 | 3.68 | – | 0.44 | –
COc1cccc(NC(C(=O)c2c[nH]c3ccccc23)c2ccccc2C)c1 (stereo not shown) [CPD-348] | 14 | 0.1 | – | 3.75 | – | –

Compound | CC50 [1] [µM] | EC50 (DENV-2 NGC; Dengue virus, DENV2, Vero B) [µM] | EC50 ([2]; Dengue virus, DENV3, Vero B) [µM] | EC50 ([3]; Dengue virus, DENV4, Vero B) [µM] | EC50 ([4]; Dengue virus, DENV1, Vero B) [µM] | other results
COc1cc(NC(C(=O)c2c[nH]c3ccccc23)c2ccccc2)cc(OCCN(C)C)c1 (stereo not shown) [CPD-243] | 13 | 1.69 | – | – | – | –
COc1cc(NC(C(=O)c2c[nH]c3cccc(CCCO)c23)c2ccccc2)cc(OC)c1 (stereo not shown) [CPD-357] | 55 | 1.35 | – | – | – | –
COc1cncc(NC(C(=O)c2c[nH]c3ccccc23)c2ccccc2)c1 (stereo not shown) [CPD-067] | 20 | 0.04 | 1.2 | – | < 0.5 | –
COc1cc(NC(C(=O)c2c[nH]c3ccc(CO)cc23)c2ccccc2)cc(OC)c1 (stereo not shown) [CPD-351] | 65 | 0.11 | 2.02 | 9.58 | – | –
CS(=O)(=O)c1cccc(NC(C(=O)c2c[nH]c3ccccc23)c2ccccc2)c1 (stereo not shown) [CPD-044] | 65 | 6.48 | – | – | – | –
COc1cc(NC(C(=O)c2c[nH]c3ccccc23)c2ccccc2)cc(OCCCO)c1 (stereo not shown) [CPD-361] | 50 | 0.09 | – | – | – | –
COc1cccc(NC(C(=O)c2c[nH]c3ccccc23)c2cccc(C)c2)c1 (stereo not shown) [CPD-138] | 20 | 0.27 | 6.52 | – | 3.21 | –
COc1cccc(NC(C(=O)c2c[nH]c3ccccc23)c2ccco2)c1 (stereo not shown) [CPD-023] | 16 | 0.3 | – | – | – | –
COc1nc(NC(C(=O)c2c[nH]c3ccccc23)c2ccccc2)ns1 (stereo not shown) [CPD-070] | 90 | 3.27 | – | – | – | –
COc1cncc(NC(C(=O)c2c[nH]c3ccccc23)c2ccc(OC)nc2)c1 (stereo not shown) [CPD-158] | – | 0.09 | 2.19 | 7.2 | 2.5 | CC50 at 4 days (in vitro): 63 µM
O=C(c1c[nH]c2ccccc12)C(Nc1cc(F)cc(F)c1)c1ccccc1 (stereo not shown) [CPD-011] | 23 | 1.66 | – | – | – | –
COc1cccc(NC(C(=O)c2c[nH]c3ccc(Cl)cc23)c2ccccc2)c1 (stereo not shown) [CPD-086] | – | 0.04 | 1.05 | 3.57 | 0.97 | CC50 at 4 days (in vitro): 12 µM
O=C(c1c[nH]c2ccccc12)C(Nc1cccc(F)c1)c1ccccc1 (stereo not shown) [CPD-008] | 12 | 2.42 | – | – | – | –
COc1cccc(NC(C(=O)c2c[nH]c3ccccc23)c2ccccn2)c1 (stereo not shown) [CPD-301] | – | 0.08 | 0.5 | 4.25 | 1.12 | CC50 at 4 days (in vitro): 89 µM
COc1cc(NC(C(=O)c2c[nH]c3ccccc23)c2cnc(OC)cn2)cc(OCCO)c1 (stereo not shown) [CPD-292] | – | 0.06 | 1.11 | 7.08 | 0.83 | CC50 at 4 days (in vitro): 68 µM
COc1cc(NC(C(=O)c2cn(C)c3ccccc23)c2ccccc2)cc(OCCO)c1 (stereo not shown) [CPD-305] | – | 0.09 | 1.02 | 2.56 | 0.44 | CC50 at 4 days (in vitro): > 116 µM
COc1cncc(NC(C(=O)c2c[nH]c3ccccc23)c2ccc(C#N)cc2)c1 (stereo not shown) [CPD-159] | – | 0.11 | 3.16 | 6.86 | 1.48 | CC50 at 4 days (in vitro): 67 µM
COc1cccc(NC(C(=O)c2c[nH]c3ccccc23)c2ccncc2)c1 (stereo not shown) [CPD-020] | 16 | 0.14 | – | – | 15.1 | –
COc1cc(F)cc(NC(C(=O)c2c[nH]c3ccccc23)c2ccccc2)c1 (stereo not shown) [CPD-015] | 22 | 0.02 | – | – | – | –
COc1cc(NC(C(=O)c2c[nH]c3ccc(F)cc23)c2ccc(OC)nc2)cc(OC)c1 (stereo not shown) [CPD-206] | – | 0.02 | 0.67 | 1.52 | 0.37 | CC50 at 4 days (in vitro): 12 µM
COc1cccc(NC(C(=O)c2c[nH]c3ccccc23)c2cc(C)on2)c1 (stereo not shown) [CPD-025] | – | 0.68 | 13 | 11.8 | 7.89 | CC50 at 4 days (in vitro): 48 µM
COc1cccc(NC(C(=O)c2c[nH]c3c(OC)cccc23)c2ccccc2)c1 (stereo not shown) [CPD-222] | – | 0.13 | 3.27 | 3.14 | 1.81 | CC50 at 4 days (in vitro): > 129 µM
